In one data set the test system is SAMP8 mice. As to the kind of experiment: Step-through passive avoidance learning experiment. The format is in vivo, mouse. The text has this:
Aging promoted mouse (SAMP8,3-week-old, male, each group N=8−10) models were divided into a group given a feed (CE-2, manufactured by (LEA Japan, Inc.) containing 0.5% of reduced coenzyme Q10 (containing about 1% oxidized coenzyme Q10) obtained in Production Example 1 and a group given a basic feed (CE-2, manufactured by CLEA Japan, Inc.) alone as a control group. The both groups were allowed a free access to the feed. The dose of reduced coenzyme Q10 obtained from the ingested amount of the feed and the body weight of the animal generally corresponded to 300-500 mg/kg/day.
The effect of reduced coenzyme Q for the learning and memory function was examined by a step-through passive avoidance learning experiment. When SAMP8 mice were placed in a light compartment of an apparatus consisting of two light and dark compartments, they enter the dark compartment since mouse prefers darkness. The mice were taught that the dark compartment was dangerous by applying an electric current (0.5 mA) for 3 sec from the floor of the dark compartment (acquisition trial). […]
To be specific, the mice were placed in the same apparatus again, and the time of stay in the light compartment was measured, based on which the learning, memory function of the mice was compared between with and without ingestion of reduced coenzyme Q in the present invention. […]

The next data set concerns PC12 cells. As to the kind of experiment: Nerve cell protection on hydrogen peroxide-induced cell death (intracellular ATP amount). The format is cell-based. Particulars: 25, 50, 100 μg/ml for 24 hr, then 0.06 mM hydrogen peroxide; compared with oxidized coenzyme Q10. As for the experimental part:
As one of the causes of the nerve cell death, active oxygen species produced for various reasons is known. Therefore, a cell death protecting action of reduced coenzyme Q10 when PC12 cells are exposed to hydrogen peroxide was examined. PC12 cells were cultured in Dulbecco's Modified Eagle Medium containing 200 units of penicillin, 0.1 μg/ml streptomycin, and 10% fetal bovine serum under 37° C., 5% CO2 conditions. The cells were plated to a 96 well microplate at 1×10^4 cells/well, and cultured under the conditions of 37° C., 5% CO2. After 24 hr, the medium was removed and substituted with Dulbecco's Modified Eagle Medium containing 200 units of penicillin, […] streptomycin and 0.5% fetal bovine serum and supplemented with reduced coenzyme Q10 and oxidized coenzyme Q10 (25, 50, 100 μg/ml). After 24 hr, the medium was removed, and the cells were exposed to hydrogen peroxide so that the final concentration in the same medium would be 0.06 mM 24 hr later, and cultured under the conditions of 37° C., 5% CO2 for 15 min. The cells were washed 3 times with PBS, and the intracellular ATP amount was measured using an ATP quantify kit (Perkin Elmer) and compared.

Data set [1] has as its system normal rat or spontaneously diabetic rat. As to conditions: cited from earlier work.
The test system of data set [2] is model mouse with Parkinson's disease. As to conditions: cited from earlier work.
Another data set relates to rat. As to conditions: 1.2 g/kg/day for 52 consecutive weeks; cited from earlier work.

For `COc1c(O)c(C)c(C/C=C(\C)CC/C=C(\C)CC/C=C(\C)CC/C=C(\C)CC/C=C(\C)CC/C=C(\C)CC/C=C(\C)CC/C=C(\C)CC/C=C(\C)CCC=C(C)C)c(O)c1OC` [reduced coenzyme Q10], the “response latency time (passive avoidance test)” value in the data set with SAMP8 mice (feed containing 0.5% reduced coenzyme Q10 (300-500 mg/kg/day), after 8 weeks (11-week-old), vs control group) is listed as “the number of mouse that showed a prolonged response latency time increased”. Also, the “learning and memory disorder-improving effect” value in the data set with SAMP8 mice (short time administration, feed containing 0.5% reduced coenzyme Q10, 8 weeks) was “a learning and memory disorder-improving effect was observed”. Besides, the “cell death of PC12 cells induced by hydrogen peroxide” value in the data set with PC12 cells was “significantly prevented”. Moreover, the “tissue degeneration caused by oxidative stress in the pancreas” value in data set [1] (diabetic rat) is “suppress”. In data set [1] (normal rat or spontaneously diabetic rat), the “amount of 8-hydroxy deoxyguanosine (oxidization marker) in urine” value is “decrease”.
Turning to oxidized coenzyme Q, the symptom improving effect result in data set [2] is “shows a symptom improving effect”.
With `COC1=C(OC)C(=O)C(C/C=C(\C)CC/C=C(\C)CC/C=C(\C)CC/C=C(\C)CC/C=C(\C)CC/C=C(\C)CC/C=C(\C)CC/C=C(\C)CC/C=C(\C)CCC=C(C)C)=C(C)C1=O` [Oxidized coenzyme Q10, oxidized coenzyme Q10], in the data set on rat, the toxicity entry is on record as “no toxicity was observed”.
